Laboratory results published in patent publication US11833147B2, “Procaspase 3 activation by combination therapy” (The Board of Trustees of the University of Illinois, priority 2012, dated 2023).

Experiments:
[1] = tested on: U-937 (lymphoma) cells; assay: U-937 (lymphoma) cell death, PAC-1 with second agent; type: cell-based; details: 0-15 μM PAC-1, 0 nM second agent, 8 hours, FIG. 4
Method: FIG. 2. Effects of PAC-1 with Etoposide on U-937 (lymphoma) cell death. Dashed lines represent the level of purely additive effects.
FIG. 3. Effects of PAC-1 with Velcade® (bortezomib) on U-937 (lymphoma) cell death. […] Cell death was measured after 6 hours in bortezomib.
FIG. 4. Effects of PAC-1 with staurosporine on U-937 (lymphoma) cell death. […] Cell death was measured after 8 hours in staurosporine.

[2] = in mammals; cited from earlier work
[3] = more active than irinotecan itself; cited from earlier work

Row | Structure (SMILES) | cell death with PAC-1 alone [1] | safety [2] | activity relative to irinotecan [3] [times]
1 | C=CCc1cccc(/C=N/NC(=O)CN2CCN(Cc3ccccc3)CC2)c1O [PAC-1, 2-(4-benzylpiperazin-1-yl)-N-[(2-hydroxy-3-prop-2-enyl-phenyl)methylideneamino]acetamide] | Little or no cell death | safe | 
2 | CCc1c2c(nc3ccc(O)cc13)-c1cc3c(c(=O)n1C2)COC(=O)[C@]3(O)CC [SN-38] |  |  | 200
